This is an account of results in patent US7521199B2, “Assay to identify estrogen receptor dependent ligands that regulate the hepatic lipase promoter” (Wyeth, priority 2000, dated 2009).

Like-named read-outs stand apart in the source and are kept apart here.

The test system of the experiment is human hepatic lipase (HL) promoter (−1557 to +43) regulated through human estrogen receptor. Briefly: Hepatic lipase promoter luciferase reporter assay in HepG2 cells cotransfected with human estrogen receptor and C/EBPα. In kind it is cell-based. To be noted: for Efficacy (%), Hepatic Lipase Inhibition: relative to 100% effect of 17β-estradiol inhibition of HL activity. As for the experimental part:
Cell media was replaced every 2-3 days. Confluent cells were rinsed once with phosphate-buffered saline and 5 mL of a prewarmed solution comprised of about 0.05% trypsin, by volume, and about 0.5 mM ethylenediamine tetraacetic acid was added. Cells were left at room temperature for 5 minutes and cells were then dislodged from the flask by tapping the flask 50 times. Trypsinization was halted by the addition of about 8.5 mL of growth cell culture media. Cells were transferred to a test tube and centrifuged at about 300×g for about 5 minutes. Total cells were counted and resuspended at a concentration of about 1×10^7 cells/200 μL of growth cell culture media.
The mixture was transferred to a 0.2 mL BTX disposable cuvette (P/N 620). Cells were electroporated using a BTX ECM 600 (San Diego, Calif.), at 100 V, […] and 72 Ω. Cells were left a room temperature for about 20 minutes. Approximately 20.5 mL of growth cell culture media was added to the cells. Cells were then seeded at about 200 μL per well of a 96 well plate. Cells were then incubated at about 37° C. for 4 hours.
Media was aspirated and replaced with 200 μL deficient media, which was comprised of Phenol Red Free-DMEM (Gibco BRL) supplemented with 1%, by volume, glutamax; 1%, by volume, penicillin/strepomycin; 1%, by volume, non-essential amino acids; and 10%, by volume, heat inactivated, and charcoal-stripped fetal bovine serum, containing varying concentrations of estrogen test compounds. […]
After estrogen treatment, cells were washed with phosphate-buffered saline and lysed with Cell Culture Lysis Reagent (Promega; Madison, Wis.), 50 μL/well, by shaking the plate at room temperature for about 20 minutes. From each well, 35 μL of cell lysate was transferred to a 96 lumat plate. Luciferase activity was determined by addition of 100 μL luciferase substrate and emitted light was detected with a Dentate Microfluor WHT FB using the Luciferase Assay System (Promega; Madison, Wis.). β-galactosidase activity was determined by adding 10 μL of cell lysate and 100 μL β-galactosidase light emission buffer (Tropix; Bedford Mass.) to a lumat plate. β-galactosidase activity was determined with a Microlumat LB 96P (EG&G Berthold). Emitted light, for each assay, was detected for 10 seconds.
Data were collected and analyzed with the JMP statistical program. Background RLU values were subtracted from both the luciferase and β-gal values. The data were normalized by division of the corrected luciferase values by the corrected β-gal values. […] Mean and standard deviations were determined from at least two separate experiments with an n=4 for each experiment.
Luciferase activity was determined in cell lysates.

The mark [1] stands for this setting: transfected HepG2 cells, 16-24 hours treatment.
The mark [2] stands for this setting: transfected HepG2 cells, 16-24 hours treatment, luciferase normalized to β-gal, read-out: IC50 (nM), Hepatic Lipase Inhibition.

Take `C[C@]12CCc3c(ccc4cc(O)ccc34)[C@@H]1CCC2=O` [equilenin]: the IC50 (Homo sapiens, HepG2, read-out: IC50 (nM), Hepatic Lipase Inhibition) worked out at 38 nM. Also, under setting [1], the “Efficacy (%), Hepatic Lipase Inhibition” value was 82%.

With `C[C@]12CCC3=C(CCc4cc(O)ccc43)[C@@H]1CCC2=O` [Δ8,9-dehydroestrone], the “Efficacy (%), Hepatic Lipase Inhibition” value under setting [1] is recorded as 93%. The 50% inhibitory concentration (IC50) under setting [2] amounted to 10 nM.

Consider `C[C@]12CC[C@H]3C(=CCc4cc(O)ccc43)[C@@H]1CC[C@H]2O` [17α-dihydroequilin], for which the “Efficacy (%), Hepatic Lipase Inhibition” value under setting [1] is recorded as 89%. Under setting [2], the concentration for half-maximal inhibition (IC50) came out at 164 nM.

`C[C@]12CC[C@H]3C(=CCc4cc(O)ccc43)[C@@H]1CC[C@@H]2O` [17β-dihydroequilin]: under setting [1], the “Efficacy (%), Hepatic Lipase Inhibition” value came out at 149%. Also, under setting [2], the concentration for half-maximal inhibition (IC50) is 469 nM.

Turning to `C[C@]12CC[C@@H]3c4ccc(O)cc4CC[C@H]3[C@@H]1CC[C@H]2O` [17α-estradiol], the “Efficacy (%), Hepatic Lipase Inhibition” value under setting [1] was determined as 69%. The IC50 under setting [2] came to 457 nM.

Regarding `C[C@]12CC[C@@H]3c4ccc(O)cc4CC[C@H]3[C@@H]1CC[C@@H]2O` [17β-estradiol], the “Efficacy (%), Hepatic Lipase Inhibition” value under setting [1] was 100%. The IC50 under setting [2] was found to be 88 nM.

`C[C@]12CCC3=C(CCc4cc(O)ccc43)[C@@H]1CC[C@@H]2O` [17β-Δ8,9-dehydroestradiol]: under setting [1], the “Efficacy (%), Hepatic Lipase Inhibition” value is 88%. Besides, the concentration for half-maximal inhibition (IC50) under setting [2] amounted to 12 nM.

By IC50 is commonly meant the concentration at which inhibition is half-maximal.
